Measured values: the supplement of paper PMC10307832

Legend:
Assay in all cases: relative viability (nuclei count vs DMSO), 5 days (fraction); higher = more cells survive
XMD13-2 + Foretinib = compound: C1CC1C(=O)NC2=NNC3=C2C=CC(=C3)C4=CC(=CC=C4)C(=O)NC5CC5 [XMD13-2] + COc1cc2c(Oc3ccc(NC(=O)C4(C(=O)Nc5ccc(F)cc5)CC4)cc3F)ccnc2cc1OCCCN1CCOCC1 [Foretinib] (partner 0.25 µM)
How it was run: (§1)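 One day after seeding in 1536-well plates, lung cancer cell lines were dosed by pin tool. Dosing was either single-drug or a fixed anchor-drug dose plus five library-drug doses (not always all listed) in √10 steps. After 5 days, nuclei were stained in one fix-and-stain step and counted on 4× images, and relative viability is the nuclei count of treated wells over that of vehicle wells, given as the median of duplicate plates.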

XMD13-2 + Decitabine = compound: C1CC1C(=O)NC2=NNC3=C2C=CC(=C3)C4=CC(=CC=C4)C(=O)NC5CC5 [XMD13-2] + Nc1ncn([C@H]2C[C@H](O)[C@@H](CO)O2)c(=O)n1 [Decitabine] (partner 2 µM)
How it was run: as §1

ALW-II-49-7 + OSI-027 = compound: Cc1ccc(C(=O)Nc2cccc(C(F)(F)F)c2)cc1Nc1cncc(C(N)=O)c1 [ALW-II-49-7] + COc1cccc2cc(-c3nc([C@H]4CC[C@H](C(=O)O)CC4)n4ncnc(N)c34)[nH]c12 [OSI-027] (partner 0.5 µM)
How it was run: as §1

Dasatinib + Lapatinib = compound: Cc1nc(Nc2ncc(C(=O)Nc3c(C)cccc3Cl)s2)cc(N2CCN(CCO)CC2)n1 [Dasatinib] + CS(=O)(=O)CCNCc1ccc(-c2ccc3ncnc(Nc4ccc(OCc5cccc(F)c5)c(Cl)c4)c3c2)o1 [Lapatinib] (partner 2 µM)
How it was run: as §1

| Cell Line | relative viability (XMD13-2 + Foretinib; first compound 0.05 µM) | relative viability (XMD13-2 + Foretinib; first compound 0.1581 µM) | relative viability (XMD13-2 + Foretinib; first compound 0.5 µM) | relative viability (XMD13-2 + Foretinib; first compound 1.581 µM) | relative viability (XMD13-2 + Foretinib; first compound 5 µM) | relative viability (XMD13-2 + Decitabine; first compound 0.05 µM) | relative viability (XMD13-2 + Decitabine; first compound 0.1581 µM) | relative viability (XMD13-2 + Decitabine; first compound 0.5 µM) | relative viability (XMD13-2 + Decitabine; first compound 1.581 µM) | relative viability (XMD13-2 + Decitabine; first compound 5 µM) | relative viability (ALW-II-49-7 + OSI-027; first compound 0.08 µM) | relative viability (ALW-II-49-7 + OSI-027; first compound 0.253 µM) | relative viability (ALW-II-49-7 + OSI-027; first compound 0.8 µM) | relative viability (ALW-II-49-7 + OSI-027; first compound 2.53 µM) | relative viability (ALW-II-49-7 + OSI-027; first compound 8 µM) | relative viability (Dasatinib + Lapatinib; first compound 0.005 µM) | relative viability (Dasatinib + Lapatinib; first compound 0.01581 µM) | relative viability (Dasatinib + Lapatinib; first compound 0.05 µM) | relative viability (Dasatinib + Lapatinib; first compound 0.1581 µM) | relative viability (Dasatinib + Lapatinib; first compound 0.5 µM) |
| --- | --- | --- | --- | --- | --- | --- | --- | --- | --- | --- | --- | --- | --- | --- | --- | --- | --- | --- | --- | --- |
| NCI-H2085 | 0.971 | 0.943 | 0.963 | 0.857 | 0.923 | 0.622 | 0.525 | 0.593 | 0.51 | 0.563 | 0.778 | 0.748 | 0.625 | 0.806 | 0.738 | 0.666 | 0.624 | 0.417 | 0.199 | 0.182 |
| NCI-H3122 | 0.966 | 0.949 | 1.05 | 0.977 | 0.939 | 0.403 | 0.439 | 0.414 | 0.372 | 0.395 | 0.905 | 0.254 | 1.05 | – | 1.09 | 0.999 | 1.02 | 1.02 | 1.01 | 0.84 |
| NCI-H1651 | 0.866 | 0.808 | 0.799 | 0.744 | 0.827 | 0.642 | 0.642 | 0.63 | 0.609 | 0.81 | 0.668 | 0.629 | 0.543 | 0.687 | 0.572 | 0.864 | 0.573 | 0.648 | 0.625 | 0.489 |
| ABC-1 | 0.949 | 1.1 | 1.41 | 1.03 | 0.846 | 1.13 | 1.33 | 1.24 | – | 1.11 | 0.404 | 0.423 | 0.481 | 0.494 | 0.379 | 0.993 | 0.896 | 1.38 | 0.872 | 0.693 |
| NCI-H2126 | 1.16 | 1.18 | 1.16 | 1.29 | 1.1 | 0.598 | 0.56 | 0.545 | 0.539 | 0.619 | 0.664 | 0.64 | 0.65 | 0.607 | 0.653 | 0.748 | 0.584 | 0.669 | 0.525 | 0.328 |
| RERF-LC-KJ | 0.871 | 0.869 | 0.87 | 0.795 | 0.844 | 0.813 | 0.747 | 0.711 | 0.702 | 0.713 | 0.511 | 0.564 | 0.504 | 0.559 | 0.535 | 0.819 | 0.758 | 0.84 | 0.813 | 0.809 |
| NCI-H1666 | 1.12 | 0.998 | 0.913 | 0.926 | 0.982 | 0.738 | 0.734 | 0.689 | 0.666 | 0.735 | 0.905 | 0.869 | 0.778 | 1.02 | 0.816 | 0.582 | 0.482 | 0.522 | 0.447 | 0.224 |
| PC-14 | 1.04 | 0.947 | 0.981 | 0.995 | 0.976 | 0.239 | 0.229 | 0.188 | 0.193 | 0.254 | 0.815 | 0.824 | 0.622 | 0.645 | 0.579 | 0.29 | 0.282 | 0.242 | 0.208 | 0.0848 |
| NCI-H1915 | 1.12 | 1.08 | 1.12 | 1.11 | 1.21 | 0.261 | 0.268 | 0.251 | 0.256 | 0.268 | 0.662 | 0.653 | 0.573 | 0.49 | 0.381 | 0.939 | 0.892 | 0.87 | 0.382 | 0.242 |
| NCI-H661 | 1 | 1.06 | 1.04 | 1.02 | 0.875 | 0.611 | 0.56 | 0.56 | 0.537 | 0.461 | 0.552 | 0.773 | 0.781 | 0.78 | 0.452 | 0.295 | 0.29 | 0.276 | 0.318 | 0.234 |
| SK-MES-1 | 0.866 | 0.967 | 1.06 | 0.87 | 1.15 | 0.429 | 0.409 | 0.373 | 0.339 | 0.455 | 0.588 | 0.547 | 0.578 | 0.456 | 0.331 | 0.467 | 0.482 | 0.399 | 0.315 | 0.258 |
| NCI-H1944 | 0.898 | 0.886 | 0.935 | 1.04 | 0.946 | 0.438 | 0.436 | 0.493 | 0.474 | 0.482 | 0.393 | 0.413 | 0.397 | 0.353 | 0.303 | 0.598 | 0.736 | 0.577 | 0.334 | 0.268 |
| HCC-78 | 0.541 | 0.539 | 0.502 | 0.51 | 0.487 | 0.691 | 0.737 | 0.664 | 0.613 | 0.61 | 0.34 | 0.394 | – | 0.36 | 0.395 | 0.359 | 0.694 | 0.696 | 0.478 | 0.19 |
| PC-3 [JPC-3] | 1.02 | 1.02 | 1.05 | 0.999 | 0.989 | 0.794 | 0.892 | 0.851 | – | 0.842 | 0.655 | 0.733 | 0.805 | 0.688 | 0.63 | 0.422 | 0.393 | 0.444 | 0.331 | 0.335 |
| EKVX | 0.919 | 0.746 | 0.699 | 0.64 | 0.83 | 0.395 | 0.32 | 0.419 | – | 0.307 | 0.579 | 0.773 | 0.578 | 0.653 | 0.679 | 0.205 | 0.165 | 0.149 | 0.123 | 0.0913 |
| NCI-H460 | 1.1 | 1.11 | 1.05 | 1.06 | 1.01 | 0.607 | 0.513 | 0.54 | 0.552 | 0.454 | 0.467 | 0.641 | 0.81 | 0.682 | 0.115 | 1.06 | 0.598 | 0.743 | 0.482 | 0.376 |
